These results are taken from patent publication US9518064B2, “Imidazothiadiazole and imidazopyridazine derivatives as protease activated receptor 4 (PAR4) inhibitors for treating platelet aggregation” (BRISTOL-MYERS SQUIBB COMPANY, priority 2012, dated 2016).

The target of data set [1] is T1, PAR4 (Homo sapiens (Human), UniProt Q96RI0). Kind of data set: Gamma thrombin induced platelet aggregation assay (PRP assay). Conditions: γ-thrombin induced platelet aggregation in PRP. The data set is classed as cell-based.
For data set [2], the target named is T1, PAR4. Kind of data set: FLIPR assay in PAR4-expressing HEK293 cells (calcium mobilization). In kind it is cell-based. Conditions: PAR4 antagonist activity, FLIPR assay as described in Example A.
For data set [3], the target named is PAR1 (Homo sapiens (Human), UniProt P25116). Kind of data set: FLIPR PAR1 counter screen (SFFLRR-induced calcium mobilization) in HEK293 cells. The data set is classed as cell-based. As to conditions: Example A, routinely tested; read-out: EC50 of agonist peptide in the assay (PAR1 counter screen). On the technique in general: Counterscreens check selectivity or assay interference.

For data set [4] the following is noted: ACS patients; cited from earlier work.
For data set [5], the system named is human PRP. As to the kind of experiment: Tissue factor-induced platelet aggregation assay. The data set is classed as cell-based. As to conditions: FIGS. 1 and 2. From the text:
Example E is a tissue factor-induced platelet aggregation assay. The conditions in this assay mimic the physiological events during thrombus formation. In this assay, platelet aggregation in human PRP was initiated by the addition of tissue factor and CaCl2. Tissue factor, the initiator of the extrinsic coagulation cascade, is highly elevated in human atherosclerotic plaque. Exposure of blood to tissue factor at the atherosclerotic site triggers a robust generation of thrombin and induces the formation of obstructive thrombi.
The ability of PAR1 or PAR4 antagonists to inhibit platelet aggregation induced by endogenous thrombin can be tested in a tissue factor driven aggregation assay. Aggregation is initiated by addition of CaCl2 and recombinant human tissue factor, which results in the generation of thrombin through activation of the coagulation pathway in the plasma. Anticoagulant agents such as corn trypsin inhibitor (Haematologic Technologies, Essex Junction, Vt.) at 50 μg/ml and PEFABLOC® FG (Centerchem, Norwalk, Conn.) are also added to the sample to prevent fibrin clot formation during the time of the study. Platelet aggregation is monitored using standard instrumentation including optical aggregometer or impedance aggregometer.

In data set [6] the test system is human washed platelets. As to the kind of experiment: Alpha-thrombin induced platelet aggregation assay in human washed platelets. Conditions: 0.1 h, read-out: IC50 for the inhibition of platelet aggregation. The data set is classed as cell-based. The procedure: Example D is an alpha-thrombin-induced platelet aggregation assay. Alpha-thrombin activates both PAR1 and PAR4. The ability of a selective PAR4 antagonist of the present invention, Example 13, to inhibit platelet aggregation was measured using a standard optical aggregometer.
Human blood was collected in ACD (85 mM tri-sodium citrate, 78 mM citric acid, 110 mM D-glucose, pH 4.4) at a ratio of 1.4 ml per 10 ml blood. PRP was isolated by centrifugation at 170 g for 14 minutes and platelets were further pelleted by centrifugation at 1300 g for 6 minutes. Platelets were washed once with 10 ml ACD containing 1 mg/ml bovine serum albumin. Platelets were resuspended at ˜2.5×10^8/ml in Tyrode's Buffer (137 mM NaCl, 2 mM KCl, 1.0 mM MgCl2, 1 mM CaCl2, 5 mM glucose, 20 mM HEPES pH 7.4).
The ability of a PAR4 antagonist (Example 13) compound to inhibit platelet aggregation induced by alpha-thrombin was tested using human washed platelets. Example 13 was pre-incubated with washed platelets for 20 min. Aggregation was initiated by addition of 1.5 nM alpha-thrombin (Haematologic Technologies, Essex Junction, Vt.) to 300 μl of washed platelets at stirring speed of 1000 rpm. […] IC50 was calculated using vehicle control as 0% inhibition.

Where no end group is shown, it is not given here.

T1 sequence (Q96RI0 18-385): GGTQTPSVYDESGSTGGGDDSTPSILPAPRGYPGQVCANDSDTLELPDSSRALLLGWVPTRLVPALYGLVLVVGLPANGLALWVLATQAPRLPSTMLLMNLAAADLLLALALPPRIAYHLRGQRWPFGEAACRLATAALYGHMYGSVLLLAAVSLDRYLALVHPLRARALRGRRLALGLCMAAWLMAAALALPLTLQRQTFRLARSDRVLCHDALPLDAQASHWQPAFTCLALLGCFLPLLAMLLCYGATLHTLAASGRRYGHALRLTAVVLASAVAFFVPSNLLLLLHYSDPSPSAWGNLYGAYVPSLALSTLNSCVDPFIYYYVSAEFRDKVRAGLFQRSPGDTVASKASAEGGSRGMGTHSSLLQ
Chain of PAR1 (P25116 22-425): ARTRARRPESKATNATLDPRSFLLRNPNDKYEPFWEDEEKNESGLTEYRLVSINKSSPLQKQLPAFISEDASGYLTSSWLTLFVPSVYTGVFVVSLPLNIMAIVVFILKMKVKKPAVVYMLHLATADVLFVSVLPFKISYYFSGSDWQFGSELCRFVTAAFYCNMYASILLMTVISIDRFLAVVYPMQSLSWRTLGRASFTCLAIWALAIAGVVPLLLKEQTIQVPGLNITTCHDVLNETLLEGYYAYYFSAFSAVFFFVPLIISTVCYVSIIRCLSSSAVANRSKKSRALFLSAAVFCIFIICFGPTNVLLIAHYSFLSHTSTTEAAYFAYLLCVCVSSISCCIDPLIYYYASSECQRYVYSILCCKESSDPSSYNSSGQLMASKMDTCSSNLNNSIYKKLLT

Consider `COc1cc(OCc2cccc(C3(O)CCOCC3)n2)c2cc(-c3cn4nc([C@H](C)F)sc4n3)oc2c1` [Example 110, (S)-4-(6-(((2-(2-(1-Fluoroethyl)imidazo[2,1-b][1,3,4]thiadiazol-6-yl)-6-methoxybenzofuran-4-yl)oxy)methyl)pyridin-2-yl)tetrahydro-2H-pyran-4-ol], for which the results for the concentration for half-maximal inhibition (IC50) in data set [1] and in data set [2] were 87.6 nM and 0.41 nM, respectively.
For SFFLRR [SFFLRR], the EC50 in data set [3] was 600 nM.
As for `COc1cc(OCc2cccc(-c3cnsc3)c2)c2cc(-c3cn4nc(OC)sc4n3)oc2c1` [Example 48], the IC50 in data set [1] stood at 65.9 nM; in data set [2] it was 1.03 nM.
In the case of `CCOC(=O)N[C@@H]1CC[C@@H]2[C@@H](C1)C[C@H]1C(=O)O[C@H](C)[C@H]1[C@H]2/C=C/c1ccc(-c2cccc(F)c2)cn1` [vorapaxar], in data set [4], the “reduction of cardiovascular events” value is recorded as “did not significantly reduce” and the “risk of major bleeding” value is listed as “significantly increased”.
Take `COc1cc(COc2cc(OC)cc3oc(-c4cn5nc(OC)sc5n4)cc23)cc(-c2cnc(OC)nc2)c1` [Example 71]: the figures for the IC50 in data set [1] and in data set [2] were 3.61 nM and 0.5 nM, respectively.
In the case of `COc1cc(OCc2cccc(-c3ccc(N4CCOCC4)nc3)c2)c2cc(-c3cn4nc(OC)sc4n3)oc2c1` [Example 59], the results for the IC50 in data set [1] and in data set [2] were 2670 nM and 4.81 nM, respectively.
In the case of `COc1ccc(-c2nccc(COc3cc(OC)cc4oc(-c5cn6nc(OC)sc6n5)cc34)n2)cc1` [Example 100], the IC50 came out at 1.8 nM in data set [1] and 0.76 nM in data set [2].
The matching figures for `COc1cc(OCc2ccnc(-c3ccnc(F)c3)n2)c2cc(-c3cn4nc(OC)sc4n3)oc2c1` [Example 97, 6-(4-((2-(2-Fluoropyridin-4-yl)pyrimidin-4-yl)methoxy)-6-methoxybenzofuran-2-yl)-2-methoxyimidazo[2,1-b][1,3,4]thiadiazole]: 2.97 nM and 0.36 nM.
On to `COc1cc(OCc2cccc(-c3cncnc3)c2)c2cc(-c3cn4nc(C(C)(F)F)sc4n3)oc2c1` [Example 63, 2-(1,1-Difluoroethyl)-6-(6-methoxy-4-((3-(pyrimidin-5-yl)benzyl)oxy)benzofuran-2-yl)imidazo[2,1-b][1,3,4]thiadiazole], for which the results for the half-inhibitory concentration (IC50) in data set [1] and in data set [2] were 2430 nM and 4.04 nM, respectively.
For “trans-cinnamoyl-Phe(4-F)-Phe(4-guanidino)-Leu-Arg-Arg-NH2 [reference compound]”, the “inhibition of tissue factor-induced platelet aggregation” value in data set [5] is recorded as “effective inhibition”.
As to `COc1cc(OCc2ccnc(-c3ccc(C(=O)N(C)C)cc3)n2)c2cc(-c3cn4nc(OC)sc4n3)oc2c1` [Example 98], the IC50 came out at 1.67 nM in data set [1] and 0.29 nM in data set [2].
Consider `COc1cc(OCc2cccc(-c3ccc(C#N)nc3)c2)c2cc(-c3cn4nc(OC)sc4n3)oc2c1` [Example 13], for which the “inhibition of tissue factor-induced platelet aggregation” value in data set [5] is reported as “effective inhibition”. For the same compound, the IC50 stood at 11 nM in data set [6], 4.91 nM in data set [1] and 1.74 nM in data set [2].
For the compound `COc1cc(OCc2cccc(-c3ccc(F)c(C)n3)c2)c2cc(-c3cn4nc(OC)sc4n3)oc2c1` [Example 32], the half-inhibitory concentration (IC50) in data set [1] amounted to 2770 nM; in data set [2], 0.57 nM.
Consider `COc1cc(OCc2cccc(-c3ccc(F)nc3)c2)c2cc(-c3cn4nc(C(C)(F)F)sc4n3)oc2c1` [Example 68], for which the values for the half-maximal inhibitory concentration (IC50) in data set [1] and in data set [2] were 2230 nM and 3.37 nM, respectively.

As a reminder, the IC50 is the point on the concentration scale where inhibition reaches its midpoint. For orientation: EC50 means the concentration that produces a half-maximal response.
